Results reported in PubChem BioAssay (NCI).
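Test compounds were applied to cells in 96-well plates for 48 hours at 5 doses. At the GI50, growth is halved. TGI is the concentration that stops growth completely.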

Key:
Experiment in all cases: NCI-60 cell line screen, 48 h
[1] = system: 786-0 renal
[2] = system: A498 renal
[3] = system: A549 NSCLC
[4] = system: ACHN renal
[5] = system: BT-549 breast
[6] = system: CAKI-1 renal
[7] = system: CCRF-CEM leukemia
[8] = system: COLO 205 colon
[9] = system: DU-145 prostate
[10] = system: EKVX NSCLC
[11] = system: HCC-2998 colon
[12] = system: HCT-116 colon
[13] = system: HCT-15 colon
[14] = system: HL-60(TB) leukemia
[15] = system: HOP-62 NSCLC
[16] = system: HOP-92 NSCLC
[17] = system: HS 578T breast
[18] = system: IGROV1 ovarian
[19] = system: K-562 leukemia
[20] = system: KM12 colon
[21] = system: LOX IMVI melanoma
[22] = system: M14 melanoma
[23] = system: MALME-3M melanoma
[24] = system: MCF7 breast
[25] = system: MDA-MB-231 breast
[26] = system: MDA-MB-435
[27] = system: MOLT-4 leukemia
[28] = system: NCI-H226 lung
[29] = system: NCI-H23 lung
[30] = system: NCI-H460 lung
[31] = system: NCI-H522 lung
[32] = system: NCI/ADR-RES ovarian
[33] = system: OVCAR-3 ovarian
[34] = system: OVCAR-4 ovarian
[35] = system: OVCAR-5 ovarian
[36] = system: OVCAR-8 ovarian
[37] = system: PC-3 prostate
[38] = system: RPMI-8226 leukemia
[39] = system: RXF 393 renal
[40] = system: SF-268 CNS
[41] = system: SF-295 CNS
[42] = system: SF-539 CNS
[43] = system: SK-MEL-2 melanoma
[44] = system: SK-MEL-28 melanoma
[45] = system: SK-MEL-5 melanoma
[46] = system: SK-OV-3 ovarian
[47] = system: SN12C renal
[48] = system: SNB-19 CNS
[49] = system: SNB-75 CNS
[50] = system: SR leukemia
[51] = system: SW-620 colon
[52] = system: T-47D breast
[53] = system: TK-10 renal
[54] = system: UACC-257 melanoma
[55] = system: UACC-62 melanoma
[56] = system: UO-31 renal

With `Cc1cc(OCc2nn(CN3CCN(C)CC3)c(=S)n2/N=C/c2ccc(F)cc2)ccc1Cl` the GI50 [1] was 18.7 µM, the TGI [1] was 34.1 µM and the GI50 [2] was 16.8 µM. It also gave a TGI [2] of 31.3 µM, a GI50 [3] of 16.9 µM and a TGI [3] of 31.3 µM. The GI50 [4] was 20.1 µM, the TGI [4] was 34.3 µM and the GI50 [5] was 17.6 µM. For the same compound, the TGI [5] was 32.7 µM, the GI50 [6] was 20.1 µM and the TGI [6] was 40.9 µM. The GI50 [7] was 19.8 µM, the TGI [7] was 43.4 µM and the GI50 [8] was 12.6 µM. It also gave a TGI [8] of 25.7 µM, a GI50 [9] of 20.7 µM and a TGI [9] of 40.7 µM. The GI50 [10] was 20.4 µM, the TGI [10] was 43 µM and the GI50 [11] was 18.8 µM. The TGI [11] was 33.1 µM, the GI50 [12] was 17.8 µM and the TGI [12] was 32.3 µM. For the same compound, the GI50 [13] was 15.2 µM, the TGI [13] was 29.3 µM and the GI50 [14] was 17.4 µM. For the same compound, the TGI [14] was 40 µM, the GI50 [15] was 18.7 µM and the TGI [15] was 34.4 µM. The GI50 [16] was 17.8 µM, the TGI [16] was 37.6 µM and the GI50 [17] was 33.1 µM. The TGI [17] was 88.7 µM, the GI50 [18] was 16.2 µM and the TGI [18] was 30.5 µM. The GI50 [19] was 19.2 µM, the TGI [19] was 41.7 µM and the GI50 [20] was 17.9 µM. The TGI [20] was 37.5 µM, the GI50 [21] was 18.3 µM and the TGI [21] was 32.7 µM. For the same compound, the GI50 [22] was 17.9 µM, the TGI [22] was 33.1 µM and the GI50 [23] was 22.8 µM. The TGI [23] was 43.4 µM, the GI50 [24] was 18.4 µM and the TGI [24] was 34.4 µM. The GI50 [25] was 18.5 µM, the TGI [25] was 36 µM and the GI50 [26] was 18 µM. For the same compound, the TGI [26] was 36.2 µM, the GI50 [27] was 14.7 µM and the TGI [27] was 34.9 µM. It also gave a GI50 [28] of 17.7 µM, a TGI [28] of 33.6 µM and a GI50 [29] of 16.9 µM. For the same compound, the TGI [29] was 31.1 µM, the GI50 [30] was 17 µM and the TGI [30] was 31.8 µM. It also gave a GI50 [31] of 15.7 µM, a TGI [31] of 30.8 µM and a GI50 [32] of 18.8 µM. For the same compound, the TGI [32] was 36.1 µM, the GI50 [33] was 17.4 µM and the TGI [33] was 34.3 µM. For the same compound, the GI50 [34] was 6.86 µM, the TGI [34] was 22 µM and the GI50 [35] was 25 µM. It also gave a TGI [35] of 49.5 µM, a GI50 [36] of 18 µM and a TGI [36] of 32.2 µM. For the same compound, the GI50 [37] was 16.2 µM, the TGI [37] was 31.6 µM and the GI50 [38] was 16.8 µM. It also gave a TGI [38] of 40.7 µM, a GI50 [39] of 17.5 µM and a TGI [39] of 31.9 µM. It also gave a GI50 [40] of 19.6 µM, a TGI [40] of 38 µM and a GI50 [41] of 17.9 µM. It also gave a TGI [41] of 36.6 µM, a GI50 [42] of 19.3 µM and a TGI [42] of 40.1 µM. It also gave a GI50 [43] of 18.5 µM, a TGI [43] of 37.6 µM and a GI50 [44] of 15.2 µM. The TGI [44] was 31.5 µM, the GI50 [45] was 16.7 µM and the TGI [45] was 30.6 µM. The GI50 [46] was 19.7 µM, the TGI [46] was 44.4 µM and the GI50 [47] was 16.9 µM. The TGI [47] was 31 µM, the GI50 [48] was 17.6 µM and the TGI [48] was 33.8 µM. The GI50 [49] was 13.4 µM, the TGI [49] was 32.2 µM and the GI50 [50] was 13.3 µM. For the same compound, the TGI [50] was 29.7 µM, the GI50 [51] was 18.7 µM and the TGI [51] was 35.7 µM. For the same compound, the GI50 [52] was 17 µM, the TGI [52] was 39.7 µM and the GI50 [53] was 14.6 µM. It also gave a TGI [53] of 33.7 µM, a GI50 [54] of 19.2 µM and a TGI [54] of 36.7 µM. It also gave a GI50 [55] of 17.4 µM, a TGI [55] of 31.6 µM and a GI50 [56] of 17.6 µM. The TGI [56] was 32.9 µM.
